In US6355443B1, “4-(4-hydroxystyryl) pyridine-containing substrates for an analyte dependent enzyme activation system” (priority 1999, dated 2002):

Tests used:
[1] = biological target: T1, Horseradish peroxidase (HRP) conjugated wheat germ agglutinin (Armoracia rusticana, UniProt P00433); assay: Sensitive HRP localization using a 4-(4-hydroxystyryl) pyridine containing compound; details: sections of mouse intestine; for fluorescence labeling of tissue sections after HRP-catalyzed deposition: HRP-conjugated wheat germ agglutinin 0.5 μg/ml, substrate 100 μg/ml, 10 min, 360 nm excitation/>400 nm emission
T1 construct: purchased Sigma; St. Louis, Mo
T1 sequence (P00433 31-338 limits assumed): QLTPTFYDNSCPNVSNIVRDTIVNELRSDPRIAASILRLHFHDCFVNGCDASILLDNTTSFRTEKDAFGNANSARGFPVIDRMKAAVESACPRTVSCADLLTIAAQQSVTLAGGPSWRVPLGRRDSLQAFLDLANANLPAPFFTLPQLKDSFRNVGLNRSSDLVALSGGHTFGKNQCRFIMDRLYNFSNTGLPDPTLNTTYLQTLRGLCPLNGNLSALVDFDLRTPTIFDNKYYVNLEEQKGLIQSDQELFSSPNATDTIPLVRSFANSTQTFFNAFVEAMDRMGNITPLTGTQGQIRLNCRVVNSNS
Experimental: Sections of paraffin-embedded mouse intestine were deparaffinized and non-specific binding sites blocked by treatment for thirty minutes in PBS-blocking buffer (PBS-BB; 0.1M phosphate buffered saline, pH 7.2; 1.0% bovine serum albumin, 0.2% non-fat powdered milk, and 0.3% Triton X-100). Horseradish peroxidase (HRP) conjugated wheat germ agglutinin (Sigma; St. Louis, Mo.) at a concentration of 0.5 μg/ml in PBS-BB was incubated on sections for one hour at room temperature. Control sections were incubated in PBS-BB alone. Sections were then washed in PBS (three X for five minutes each wash) and reacted for ten minutes at room temperature in a solution containing 4-(4-hydroxystyryl) pyridinium propylsulfonate (HPPS) (Molecular Biosciences; Boulder, Colo.) at 100 μg/ml in TSA Amplification Diluent, (NEN Life Science Products, Inc.; Boston, Mass.). Sections were then washed in PBS (three X for five minutes each wash), mounted in PBS:Glycerol (1:1) and coverslipped. Sections were viewed with a Zeiss Axioskop microscope equipped with epifluorescence and a filter set with excitation/emission characteristics of 360 nm peak excitation/>400 nm long pass emission. Photomicrographs were taken using a Zeiss MC100 camera system.

[2] = biological target: T1, Horseradish peroxidase (HRP) conjugated wheat germ agglutinin; assay: Stability of deposited fluorescent reaction product in aqueous vs non-aqueous mounting medium
Experimental: Sections of paraffin-embedded mouse intestine were deparaffinized and non-specific binding sites were blocked by treatment for thirty minutes in PBS-BB. HRP conjugated wheat germ agglutinin (Sigma), at a concentration of 0.5 μg/ml in PBS-BB, was incubated on sections for one hour at room temperature. Sections were then washed in PBS (three X for five minutes each wash) and were reacted for ten minutes at room temperature in a solution of 4-(4-hydroxystyryl) methylpyridinium tosylate (HMPT) (Molecular Biosciences) at 100 μg/ml in TSA Amplification Diluent (NEN Life Science Products, Inc.). Sections were then washed in PBS (three X for five minutes each wash) and either mounted in PBS:Glycerol (1:1) or dehydrated in graded ethanol solutions (0%, 70%, 95%, 100%, 100% three minutes each) and xylene (two X for three minutes each) mounted in Permount (a non-aqueous mounting medium; Fisher Scientific, Pittsburgh, Pa.) and coverslipped. The fluorescent signal intensity of slides mounted in aqueous (PBS:Glycerol) or non-aqueous (Permount) media was compared using a Zeiss Axioskop microscope equipped with epifluorescence and a 360 nm excitation/>400 nm emission filter set. Photomicrographs were taken using a Zeiss MC100 camera system and standard two second exposures.

Compound | concentration of conjugated wheat germ agglutinin used/required for wheat germ agglutinin localization [1] | fluorescence labeling of tissue sections after HRP-catalyzed deposition [1] | fluorescence labeling of tissue sections after HRP-catalyzed deposition ([1]; listed as EPPS) | background signal / signal/noise ratio when mounted in non-aqueous media ([2]; Permount, non-aqueous) | localization of wheat germ agglutinin reactivity ([2]; aqueous and non-aqueous medium) | fluorescence in aqueous solution ([2]; section of mouse intestine, aqueous (FIG. 2A)) | reaction product fluorescence in non-aqueous medium ([2]; section of mouse intestine, non-aqueous (FIG. 2B)) | fluorescence intensity of reaction product in aqueous versus non-aqueous medium ([2]; sections of mouse intestine, PBS:Glycerol (aqueous) vs Permount (non-aqueous), two second exposures)
4-(4-hydroxystyryl) pyridinium propylsulfonate [HPPS] | 0.5 µg/mL | intense HPPS fluorescence was localized to intestinal goblet cells | intense EPPS fluorescence localized to intestinal goblet cells |  |  |  |  | 
C[n+]1ccc(C=Cc2ccc(O)cc2)cc1.Cc1ccc(S(=O)(=O)[O-])cc1 [HMPT, 4-(4-hydroxystyryl) methylpyridinium tosylate] |  |  |  | background signal is reduced resulting in a better signal/noise ratio | Strong wheat germ agglutinin reactivity was localized to the intestinal epithelium under both conditions | bright fluorescence in aqueous solution | bright reaction product in a non-aqueous medium | equally bright in aqueous (FIG. 2A) and non-aqueous (FIG. 2B) medium
